The text below walks through data of US12129246B1, “Hydroquinazoline derivatives for the treatment of a disease or disorder” (Novartis AG, priority 2023, dated 2024).

Test [1] has as its target T1, human NPR1 (Homo sapiens, UniProt P16066).
T1 construct: host or cells: CHO-K1
T1 sequence (P16066 33-1061): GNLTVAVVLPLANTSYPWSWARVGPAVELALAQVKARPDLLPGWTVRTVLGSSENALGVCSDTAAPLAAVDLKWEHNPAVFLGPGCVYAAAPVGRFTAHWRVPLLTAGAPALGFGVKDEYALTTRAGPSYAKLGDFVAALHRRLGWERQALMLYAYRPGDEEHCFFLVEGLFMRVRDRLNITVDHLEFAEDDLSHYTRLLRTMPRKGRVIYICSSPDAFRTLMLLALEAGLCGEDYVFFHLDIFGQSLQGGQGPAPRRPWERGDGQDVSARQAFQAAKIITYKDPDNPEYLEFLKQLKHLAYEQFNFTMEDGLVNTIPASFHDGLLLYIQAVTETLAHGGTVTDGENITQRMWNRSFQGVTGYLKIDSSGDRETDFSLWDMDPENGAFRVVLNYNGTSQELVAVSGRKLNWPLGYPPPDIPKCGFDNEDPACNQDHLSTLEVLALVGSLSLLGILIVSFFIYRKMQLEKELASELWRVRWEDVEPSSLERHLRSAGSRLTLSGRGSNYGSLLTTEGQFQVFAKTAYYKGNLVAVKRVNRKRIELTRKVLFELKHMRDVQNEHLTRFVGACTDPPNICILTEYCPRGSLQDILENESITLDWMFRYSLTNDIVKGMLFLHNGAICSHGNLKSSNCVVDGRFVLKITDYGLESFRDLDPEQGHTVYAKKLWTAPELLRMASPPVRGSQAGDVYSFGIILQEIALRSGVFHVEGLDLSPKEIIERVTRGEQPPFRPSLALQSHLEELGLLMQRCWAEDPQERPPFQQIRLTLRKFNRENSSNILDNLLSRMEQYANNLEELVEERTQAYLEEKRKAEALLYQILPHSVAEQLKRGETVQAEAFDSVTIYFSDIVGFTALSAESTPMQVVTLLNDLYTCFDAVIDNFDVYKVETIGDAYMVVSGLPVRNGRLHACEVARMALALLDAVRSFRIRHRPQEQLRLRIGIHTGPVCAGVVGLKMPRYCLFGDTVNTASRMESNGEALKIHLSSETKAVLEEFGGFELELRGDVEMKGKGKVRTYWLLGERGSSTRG
As to the kind of experiment: Cellular cGMP production assay, human NPR1 expressing CHO-K1 cells (CisBio HTRF). It counts as cell-based. The following applies: for AC50: cGMP production, 30 min at 37° C., 12-point dose-response from 30 μM; for Human NPR1 Amax (% of ANP): maximum cGMP production as percentage of the maximum cGMP produced with ANP. A digest of the protocol:
(§1)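 CHO-K1 cells expressing human or cynomolgus NPR1 treated with compound (12-point, 3-fold dilutions from 30 μM top) in PBS+0.1% BSA with 1 mM IBMX, 30 min at 37° C. After lysis, cGMP quantified by HTRF competition (cGMP-d2/anti-cGMP-cryptate, 1 h RT, 665 nm emission) against a calibrator standard curve.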

Test [2] addresses monkey NPR1 (Macaca fascicularis, UniProt A0A7N9DBT9). Briefly: Cellular cGMP production assay, monkey NPR1 expressing CHO-K1 cells (CisBio HTRF). The following applies: for Monkey NPR1 Amax (% of ANP): maximum cGMP production as percentage of the maximum cGMP produced with ANP. In kind it is cell-based. An outline of the steps:
as §1

Setting [3] is: cGMP production, monkey NPR1 CHO-K1 cells, 30 min at 37° C., 12-point dose-response from 30 μM, read-out: Monkey NPR1 AC50.

Where two headings read alike, the source gives them in different places.

Chain of monkey NPR1 (A0A7N9DBT9 entry or part of it): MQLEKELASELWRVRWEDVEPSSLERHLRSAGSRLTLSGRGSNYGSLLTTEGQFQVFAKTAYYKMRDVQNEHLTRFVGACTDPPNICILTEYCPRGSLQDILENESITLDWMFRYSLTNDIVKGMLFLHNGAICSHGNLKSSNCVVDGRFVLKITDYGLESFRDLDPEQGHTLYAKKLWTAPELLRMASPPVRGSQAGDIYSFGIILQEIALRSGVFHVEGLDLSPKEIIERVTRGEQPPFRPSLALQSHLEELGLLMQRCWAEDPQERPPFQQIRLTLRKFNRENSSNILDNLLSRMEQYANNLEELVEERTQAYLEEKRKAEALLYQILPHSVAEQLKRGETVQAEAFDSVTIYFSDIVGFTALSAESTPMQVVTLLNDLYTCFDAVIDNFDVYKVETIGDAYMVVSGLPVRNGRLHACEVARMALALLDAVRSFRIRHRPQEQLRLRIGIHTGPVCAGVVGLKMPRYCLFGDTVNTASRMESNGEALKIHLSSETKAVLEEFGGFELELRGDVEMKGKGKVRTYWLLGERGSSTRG

For `CC[C@H]([C@H]1CC[C@H](C(=O)O)CC1)N(C)c1nc2c(c(N[C@@H](CN3C4CCCC3CC4)c3cnn(C)c3)n1)C[C@H](c1ccccc1F)CC2` [Compound 62, (1R,4r)-4-((1R)-1-(((6R)-4-(((1R)-2-(8-azabicyclo[3.2.1]octan-8-yl)-1-(1-methyl-1H-pyrazol-4-yl)ethyl)amino)-6-(2-fluorophenyl)-5,6,7,8-tetrahydroquinazolin-2-yl)(methyl)amino)propyl)cyclohexane-1-carboxylic acid], in test [1], the AC50 (as a rule, the concentration giving half of the maximal activity seen) was 207 nM and the “Human NPR1 Amax (% of ANP)” value is recorded as 94.244 % of ANP. Also, the activity in test [2] was half-maximal at 133 nM (AC50). Moreover, the “Monkey NPR1 Amax (% of ANP)” value in test [2] (monkey NPR1 CHO-K1 cells) was 103.497 % of ANP.
With `CC[C@H]([C@H]1CC[C@H](C(=O)O)CC1)N(C)c1nc2c(c(N[C@@H](CN3CC4CCC3C4)c3cnn(C)c3)n1)C[C@H](c1ccccc1)CC2` (stereo partly drawn) [Compound 128, (1R,4r)-4-((1R)-1-(((6R)-4-(((1R)-2-(2-azabicyclo[2.2.1]heptan-2-yl)-1-(1-methyl-1H-pyrazol-4-yl)ethyl)amino)-6-phenyl-5,6,7,8-tetrahydroquinazolin-2-yl)(methyl)amino)propyl)cyclohexane-1-carboxylic acid], in test [1], the activity was half-maximal at 629 nM (AC50) and the “Human NPR1 Amax (% of ANP)” value was 105.430 % of ANP. The AC50 in test [2] (setting [3]) turned out to be 416 nM. Also, in test [2] (monkey NPR1 CHO-K1 cells), the “Monkey NPR1 Amax (% of ANP)” value is 95.117 % of ANP.
Consider `CC[C@H]([C@H]1CC[C@H](C(=O)O)CC1)N(C)c1nc2c(c(N[C@@H](CN3C4CCC3CC4)c3cnn(C)c3)n1)C[C@H](c1ccc(F)cc1)CC2` [Compound 63, (1R,4r)-4-((R)-1-(((R)-4-(((R)-2-(7-azabicyclo[2.2.1]heptan-7-yl)-1-(1-methyl-1H-pyrazol-4-yl)ethyl)amino)-6-(4-fluorophenyl)-5,6,7,8-tetrahydroquinazolin-2-yl)(methyl)amino)propyl)cyclohexane-1-carboxylic acid], for which the AC50 in test [1] was found to be 210 nM; in test [2] it was 196 nM. The “Human NPR1 Amax (% of ANP)” value in test [1] was 100.629 % of ANP. For the same compound, in test [2] (monkey NPR1 CHO-K1 cells), the “Monkey NPR1 Amax (% of ANP)” value is 99.684 % of ANP.
For the compound `CC[C@@H](Nc1nc2c(c(N[C@@H](CN3CCCC3)c3ccccc3)n1)CN(c1cccc(F)c1)CC2)[C@H]1CC[C@H](C(=O)O)CC1` [Compound 99, (1R,4r)-4-((R)-1-((6-(3-fluorophenyl)-4-(((R)-1-phenyl-2-(pyrrolidin-1-yl)ethyl)amino)-5,6,7,8-tetrahydropyrido[4,3-d]pyrimidin-2-yl)amino)propyl)cyclohexane-1-carboxylic acid], the AC50 in test [1] was found to be 351 nM; in test [2] (setting [3]), 256 nM. Moreover, the “Human NPR1 Amax (% of ANP)” value in test [1] is on record as 102.315 % of ANP. The “Monkey NPR1 Amax (% of ANP)” value in test [2] (monkey NPR1 CHO-K1 cells) is 94.886 % of ANP.
For `C[C@H]1CCCN(C[C@H](Nc2nc(N(C)[C@H](C3CC3)[C@H]3CC[C@H](C(=O)O)CC3)nc3c2C[C@H](c2cccc(F)c2)CC3)c2cnn(C)c2)C1` [Compound 47, (1R,4r)-4-((R)-cyclopropyl(((R)-6-(3-fluorophenyl)-4-(((R)-1-(1-methyl-1H-pyrazol-4-yl)-2-((S)-3-methylpiperidin-1-yl)ethyl)amino)-5,6,7,8-tetrahydroquinazolin-2-yl)(methyl)amino)methyl)cyclohexane-1-carboxylic acid], in that order: 180 nM, 97 nM, 101.280 % of ANP and 96.550 % of ANP.
Regarding `CC[C@@H](Nc1nc2c(c(N[C@@H](CN3CCCCC3)c3cnn(CC)c3)n1)C[C@H](c1cccc(F)c1)CC2)[C@H]1CC[C@H](C(=O)O)CC1` [Compound 30, (1R,4r)-4-((R)-1-(((R)-4-(((R)-1-(1-ethyl-1H-pyrazol-4-yl)-2-(piperidin-1-yl)ethyl)amino)-6-(3-fluorophenyl)-5,6,7,8-tetrahydroquinazolin-2-yl)amino)propyl)cyclohexane-1-carboxylic acid], in test [1], the activity was half-maximal at 140 nM (AC50) and the “Human NPR1 Amax (% of ANP)” value is on record as 99.863 % of ANP. The AC50 in test [2] (setting [3]) is 77 nM. Besides, in test [2] (monkey NPR1 CHO-K1 cells), the “Monkey NPR1 Amax (% of ANP)” value is given as 99.091 % of ANP.
For `CC[C@@H](Nc1nc2c(c(N[C@@H](CN3CCC(F)CC3)c3cnn(C)c3)n1)C[C@H](c1ccccc1)CC2)[C@H]1CC[C@H](C(=O)O)CC1` [Compound 142, (1R,4r)-4-((R)-1-(((R)-4-(((R)-2-(4-fluoropiperidin-1-yl)-1-(1-methyl-1H-pyrazol-4-yl)ethyl)amino)-6-phenyl-5,6,7,8-tetrahydroquinazolin-2-yl)amino)propyl)cyclohexane-1-carboxylic acid] the same measures were 901 nM, 107.815 % of ANP, 313 nM and 95.614 % of ANP.
For `CC[C@H]([C@H]1CC[C@H](C(=O)O)CC1)N(C)c1nc2c(c(N[C@@H](CN3CCCC3)c3ccccc3)n1)C[C@H](c1ccccc1)CC2` [Compound 146, (1R,4r)-4-((R)-1-(methyl((R)-6-phenyl-4-(((R)-1-phenyl-2-(pyrrolidin-1-yl)ethyl)amino)-5,6,7,8-tetrahydroquinazolin-2-yl)amino)propyl)cyclohexane-1-carboxylic acid], in that order: 1070 nM, 104.657 % of ANP, 702 nM and 96.864 % of ANP.
For `CC[C@@H](Nc1nc2c(c(N[C@@H](CN3CCCC[C@H]3C)c3cnn(CC)c3)n1)C[C@H](c1ccccc1)CC2)[C@H]1CC[C@H](C(=O)O)CC1` [Compound 64, (1R,4r)-4-((R)-1-(((R)-4-(((R)-1-(1-ethyl-1H-pyrazol-4-yl)-2-((R)-2-methylpiperidin-1-yl)ethyl)amino)-6-phenyl-5,6,7,8-tetrahydroquinazolin-2-yl)amino)propyl)cyclohexane-1-carboxylic acid], in that order: 213 nM, 93.045 % of ANP, 175 nM and 92.911 % of ANP.
Take `CC[C@@H](Nc1nc2c(c(N[C@@H](CN3CCCCC3)c3cnn(C)c3)n1)CN(c1cccc(F)c1)CC2)[C@H]1CC[C@H](C(=O)O)CC1` [Compound 55]: the AC50 came to 194 nM in test [1] and 142 nM in test [2] (setting [3]). Further, the “Human NPR1 Amax (% of ANP)” value in test [1] is 92.712 % of ANP. Moreover, the “Monkey NPR1 Amax (% of ANP)” value in test [2] (monkey NPR1 CHO-K1 cells) was 93.391 % of ANP.
As for `CC[C@@H](Nc1nc2c(c(N[C@@H](CN3C4CCCC3CCC4)c3ccccc3)n1)C[C@H](c1ccccc1)CC2)[C@H]1CC[C@H](C(=O)O)CC1` [Compound 108, (1R,4r)-4-((R)-1-(((R)-4-(((R)-2-((1S,5S)-9-azabicyclo[3.3.1]nonan-9-yl)-1-phenylethyl)amino)-6-phenyl-5,6,7,8-tetrahydroquinazolin-2-yl)amino)propyl)cyclohexane-1-carboxylic acid], in test [1], the activity was half-maximal at 410 nM (AC50) and the “Human NPR1 Amax (% of ANP)” value was 93.072 % of ANP. The compound also registered an AC50 in test [2] of 248 nM. Moreover, in test [2] (monkey NPR1 CHO-K1 cells), the “Monkey NPR1 Amax (% of ANP)” value is on record as 99.706 % of ANP.
For `CCn1cc([C@H](CN2C3CCCC2CCC3)Nc2nc(N[C@H](C)c3ccc(C(=O)O)cc3)nc3c2C[C@H](c2cccc(F)c2)CC3)cn1` [Compound 153, 4-((R)-1-(((R)-4-(((R)-2-((1S,5S)-9-azabicyclo[3.3.1]nonan-9-yl)-1-(1-ethyl-1H-pyrazol-4-yl)ethyl)amino)-6-(3-fluorophenyl)-5,6,7,8-tetrahydroquinazolin-2-yl)amino)ethyl)benzoic acid], in that order: 1200 nM, 93.868 % of ANP, 753 nM and 98.372 % of ANP.
